Values after ≈ are worked out from the molar mass of the structure shown. Values joined by “and” are separate entries in the source; they are usually repeats but may differ in a detail not shown here. Equal entries are not always repeated.
Tests used:
Assay in all cases: ≥ marks a high value that may be exact or a test limit, other limits are often not marked, values filed in µg/mL are converted to µM
[1] = system: Staphylococcus aureus USA 300
[2] = system: Escherichia coli ATCC 25922
[3] = system: Pseudomonas aeruginosa PAO1
[4] = system: Klebsiella pneumoniae ATCC 13883
Escherichia coli JW0013 = system: Escherichia coli JW0013
[5] = system: Salmonella typhimurium KCTC 1926
[6] = system: Staphylococcus aureus KCTC 1621
[7] = system: Staphylococcus epidermidis KCTC 1917
[8] = system: Escherichia coli KCTC 1682
[9] = system: Bacillus subtilis KCTC 3068
[10] = system: Pseudomonas aeruginosa KCTC 1637
[11] = system: Enterococcus faecalis ATCC 29212
Escherichia coli UB1005 = system: Escherichia coli UB1005
[12] = system: Staphylococcus epidermidis C621
[13] = system: Staphylococcus aureus ATCC 25923
[14] = system: Bacillus subtilis ATCC 6633
[15] = system: Pseudomonas aeruginosa ATCC 27853
Streptococcus mutans = system: Streptococcus mutans
[16] = system: Staphylococcus aureus ATCC 43300

Row | MIC [5] | MIC [6] | MIC [7] | MIC [8] | MIC [9] | MIC [10] | MIC (Streptococcus mutans) | other results | Compound
1 | – | – | – | – | – | – | – | MIC [1]: 6.2 µM and 12.5 µM | CC[C@H](C)[C@H](NC(=O)[C@H](CCC(N)=O)NC(=O)[C@H](CCC(N)=O)NC(=O)[C@@H](NC(=O)[C@@H](NC(=O)[C@H](CCCN=C(N)N)NC(=O)[C@H](CCCCN)NC(=O)[C@H](Cc1ccccc1)NC(=O)CN)[C@@H](C)CC)C(C)C)C(=O)N[C@@H](CCC(N)=O)C(=O)N[C@@H](CC(=O)O)C(=O)N[C@@H](Cc1ccccc1)C(=O)N[C@@H](CC(C)C)C(=O)N[C@@H](CCCN=C(N)N)C(=O)N[C@@H](CC(N)=O)C(=O)N[C@@H](CC(C)C)C(=O)N[C@H](C(N)=O)C(C)C [GFKRIVQQIQDFLRNLV]
2 | – | – | – | – | – | – | – | MIC [2]: 25 µM (≈ 31.3 µg/mL); MIC [3]: > 25 µM; MIC [1]: 25 µM (≈ 31.3 µg/mL); MIC [4]: 25 µM (≈ 31.3 µg/mL) | CC(C)C[C@H](NC(=O)[C@H](C)NC(=O)[C@H](CCCCN)NC(=O)CNC(=O)[C@H](CC(C)C)NC(=O)[C@H](C)NC(=O)[C@H](CCCCN)NC(=O)[C@H](CC(C)C)NC(=O)[C@H](C)NC(=O)[C@H](CO)NC(=O)[C@H](CC(C)C)NC(=O)[C@H](CC(C)C)NC(=O)CN)C(N)=O [GLLSALKALGKAL]
3 | – | – | – | – | – | – | – | MIC (Escherichia coli JW0013): 0.3 µM (≈ 0.624 µg/mL) | CC[C@H](C)[C@H](NC(=O)[C@H](Cc1ccc(O)cc1)NC(=O)[C@@H](NC(=O)[C@@H]1CCCN1C(=O)[C@H](CCCCN)NC(=O)[C@H](CC(N)=O)NC(=O)[C@H](CC(N)=O)NC(=O)CN)C(C)C)C(=O)N1CCC[C@H]1C(=O)N[C@@H](CCC(N)=O)C(=O)N1CCC[C@H]1C(=O)N[C@@H](CCCN=C(N)N)C(=O)N1CCC[C@H]1C(=O)N1CCC[C@H]1C(=O)N[C@@H](Cc1cnc[nH]1)C(=O)N1CCC[C@H]1C(=O)N[C@@H](CCCN=C(N)N)C(=O)N[C@@H](CC(C)C)C(=O)O [GNNKPVYIPQPRPPHPRL]
4 | 2 µM (≈ 4.41 µg/mL) | 4 µM (≈ 8.82 µg/mL) | 8 µM (≈ 17.6 µg/mL) | 8 µM (≈ 17.6 µg/mL) | 4 µM (≈ 8.82 µg/mL) | 4 µM (≈ 8.82 µg/mL) | – | – | CC(C)C[C@H](NC(=O)[C@H](CCCCN)NC(=O)[C@H](CCCCN)NC(=O)[C@H](CC(C)C)NC(=O)[C@H](CC(C)C)NC(=O)[C@H](CCCCN)NC(=O)[C@H](CCCCN)NC(=O)[C@H](CC(C)C)NC(=O)[C@H](CCCCN)NC(=O)[C@H](CCCCN)NC(=O)[C@H](CCCN=C(N)N)NC(=O)[C@H](CC(C)C)NC(=O)[C@H](CCCN=C(N)N)NC(=O)[C@H](CCCCN)NC(=O)[C@H](CC(C)C)NC(=O)[C@H](CCCN=C(N)N)NC(=O)CN)C(=O)N[C@@H](CO)C(N)=O [GRLKRLRKKLKKLLKKLS]
5 | 2 µM (≈ 5.45 µg/mL) | 1 µM (≈ 2.73 µg/mL) | 1 µM (≈ 2.73 µg/mL) | 2 µM (≈ 5.45 µg/mL) | 2 µM (≈ 5.45 µg/mL) | 2 µM (≈ 5.45 µg/mL) | – | – | CC(C)C[C@H](NC(=O)[C@H](Cc1ccc(O)cc1)NC(=O)[C@H](Cc1cnc[nH]1)NC(=O)[C@@H](NC(=O)[C@H](CC(C)C)NC(=O)[C@H](C)NC(=O)[C@H](C)NC(=O)[C@H](CCCCN)NC(=O)[C@H](C)NC(=O)[C@@H](NC(=O)[C@H](Cc1cnc[nH]1)NC(=O)[C@H](CCCCN)NC(=O)CNC(=O)[C@@H](NC(=O)[C@H](Cc1cnc[nH]1)NC(=O)[C@H](C)NC(=O)[C@H](C)NC(=O)[C@H](CCCCN)NC(=O)[C@H](CCCCN)NC(=O)[C@H](Cc1ccccc1)NC(=O)[C@H](Cc1ccccc1)NC(=O)[C@H](CO)NC(=O)CNC(=O)[C@H](Cc1c[nH]c2ccccc12)NC(=O)CN)C(C)C)C(C)C)[C@@H](C)O)C(=O)O [GWGSFFKKAAHVGKHVAKAALTHYL]
6 | 8 µM (≈ 19.4 µg/mL) | 8 µM (≈ 19.4 µg/mL) | 4 µM (≈ 9.7 µg/mL) | 8 µM (≈ 19.4 µg/mL) | 4 µM (≈ 9.7 µg/mL) | 8 µM (≈ 19.4 µg/mL) | – | – | CC[C@H](C)[C@H](N)C(=O)N[C@@H](CC(C)C)C(=O)N[C@@H](CCCCN)C(=O)N[C@@H](CC(C)C)C(=O)N[C@@H](Cc1ccccc1)C(=O)N[C@@H](CCCCN)C(=O)N[C@@H](CCCN=C(N)N)C(=O)N[C@H](C(=O)N[C@H](C(=O)N[C@@H](CCCCN)C(=O)N[C@@H](CCCN=C(N)N)C(=O)N[C@H](C(=O)N[C@@H](CC(C)C)C(=O)N[C@@H](CCCCN)C(=O)N[C@@H](Cc1ccccc1)C(=O)N[C@@H](CC(C)C)C(=O)N[C@@H](CCCN=C(N)N)C(=O)N[C@@H](CCCCN)C(=O)N[C@@H](CC(C)C)C(=O)O)[C@@H](C)CC)C(C)C)[C@@H](C)CC [ILKLFKRIVKRILKFLRKL]
7 | – | – | – | – | – | – | – | MIC [11]: > 32 µM; MIC [2]: 8 µM (≈ 15.3 µg/mL); MIC (Escherichia coli UB1005): 1 µM (≈ 1.91 µg/mL); MIC [12]: 8 µM (≈ 15.3 µg/mL); MIC [13]: 32 µM (≈ 61.2 µg/mL); MIC [14]: 4 µM (≈ 7.65 µg/mL); MIC [15]: 8 µM (≈ 15.3 µg/mL) | C[C@H](NC(=O)[C@H](C)NC(=O)[C@H](Cc1c[nH]c2ccccc12)NC(=O)[C@H](C)NC(=O)[C@H](C)NC(=O)[C@H](Cc1c[nH]c2ccccc12)NC(=O)[C@H](C)NC(=O)[C@H](C)NC(=O)[C@H](Cc1c[nH]c2ccccc12)NC(=O)[C@H](C)NC(=O)[C@H](C)NC(=O)[C@H](CCCCN)NC(=O)[C@H](CCCCN)NC(=O)[C@H](CCCCN)NC(=O)[C@H](CCCCN)NC(=O)[C@H](CCCCN)NC(=O)[C@@H](N)CCCCN)C(N)=O [KKKKKKAAWAAWAAWAA]
8 | – | – | – | – | – | – | ≥ 93.4 µM | – | CC(C)C[C@H](NC(=O)[C@@H](NC(=O)[C@H](CCCN=C(N)N)NC(=O)[C@H](CCCCN)NC(=O)[C@@H](NC(=O)[C@H](CCCCN)NC(=O)[C@H](CCC(N)=O)NC(=O)[C@H](C)NC(=O)[C@H](CC(C)C)NC(=O)[C@@H](N)CCCCN)C(C)C)C(C)C)C(=O)N[C@@H](CCCN=C(N)N)C(=O)O [KLAQKVKRVLR]
9 | 4.07 µM (≈ 6.25 µg/mL) | 8.14 µM (≈ 12.5 µg/mL) | 4.07 µM (≈ 6.25 µg/mL) | 8.14 µM (≈ 12.5 µg/mL) | 4.07 µM (≈ 6.25 µg/mL) | 4.07 µM (≈ 6.25 µg/mL) | – | – | CC[C@H](C)[C@H](NC(=O)[C@H](CCCCN)NC(=O)[C@@H]1CCCN1C(=O)[C@H](CC(C)C)NC(=O)[C@@H](N)CCCCN)C(=O)N[C@@H](Cc1c[nH]c2ccccc12)C(=O)N[C@@H](Cc1c[nH]c2ccccc12)C(=O)N[C@H](C(=O)N[C@@H](CCCCN)C(=O)N[C@H](C(=O)N1CCC[C@H]1C(=O)N[C@@H](CCCCN)C(N)=O)C(C)C)[C@@H](C)CC [KLPKIWWIKVPK]
10 | 4 µM (≈ 9.06 µg/mL) | 4 µM (≈ 9.06 µg/mL) | 8 µM (≈ 18.1 µg/mL) | 8 µM (≈ 18.1 µg/mL) | 4 µM (≈ 9.06 µg/mL) | 8 µM (≈ 18.1 µg/mL) | – | – | CC[C@H](C)[C@H](NC(=O)[C@H](CC(C)C)NC(=O)[C@@H](N)CC(C)C)C(=O)N[C@H](C(=O)N[C@@H](CC(C)C)C(=O)N[C@@H](CCCN=C(N)N)C(=O)N[C@@H](CCCN=C(N)N)C(=O)N[C@@H](CCCN=C(N)N)C(=O)N[C@@H](Cc1c[nH]c2ccccc12)C(=O)N[C@@H](CCCN=C(N)N)C(=O)N[C@@H](CCCCN)C(=O)N[C@@H](CCC(N)=O)C(=O)N[C@@H](C)C(=O)N[C@@H](CCCCN)C(=O)N[C@@H](C)C(=O)N[C@@H](CCCCN)C(=O)N[C@@H](CO)C(=O)N[C@@H](CCCCN)C(N)=O)[C@@H](C)CC [LLIILRRRWRKQAKAKSK]
11 | – | – | – | – | – | – | ≥ 224 µM | – | NCCCC[C@H](NC(=O)[C@H](Cc1c[nH]c2ccccc12)NC(=O)[C@H](Cc1c[nH]c2ccccc12)NC(=O)[C@H](CCCCN)NC(=O)[C@H](CCCN=C(N)N)NC(=O)[C@H](CCCN=C(N)N)NC(=O)[C@@H](N)CCCN=C(N)N)C(=O)O [RRRKWWK]
12 | – | – | – | – | – | – | 13.3 µM (≈ 16 µg/mL) | MIC [16]: 125 µM (≈ 150 µg/mL); MIC [3]: 125 µM (≈ 150 µg/mL) | NC(N)=NCCC[C@H](NC(=O)[C@H](CCCN=C(N)N)NC(=O)[C@H](CCCN=C(N)N)NC(=O)[C@@H](N)CCCN=C(N)N)C(=O)N[C@@H](Cc1c[nH]c2ccccc12)C(=O)N[C@@H](Cc1c[nH]c2ccccc12)C(=O)N[C@@H](Cc1c[nH]c2ccccc12)C(=O)O [RRRRWWW]
13 | – | – | – | – | – | – | 5.81 µM (≈ 16 µg/mL) | – | C[C@H](NC(=O)[C@H](CO)NC(=O)[C@H](C)NC(=O)[C@H](Cc1ccccc1)NC(=O)[C@H](Cc1c[nH]c2ccccc12)NC(=O)[C@H](CCCN=C(N)N)NC(=O)[C@H](Cc1c[nH]c2ccccc12)NC(=O)[C@H](CCCN=C(N)N)NC(=O)[C@H](Cc1c[nH]c2ccccc12)NC(=O)[C@@H](N)CCCN=C(N)N)C(=O)N[C@@H](CO)C(=O)N[C@@H](C)C(=O)N[C@@H](CCCN=C(N)N)C(=O)N[C@@H](Cc1c[nH]c2ccccc12)C(=O)N[C@@H](CCCN=C(N)N)C(=O)N[C@@H](Cc1c[nH]c2ccccc12)C(=O)N[C@@H](CCCN=C(N)N)C(=O)N[C@@H](Cc1c[nH]c2ccccc12)C(=O)N[C@@H](Cc1ccccc1)C(N)=O [RWRWRWFASASARWRWRWF]
14 | – | – | – | – | – | – | ≥ 95.8 µM | – | CC[C@H](C)[C@H](NC(=O)[C@H](CC(N)=O)NC(=O)[C@H](CCCCN)NC(=O)[C@H](CC(C)C)NC(=O)[C@H](CO)NC(=O)[C@H](CCC(N)=O)NC(=O)[C@H](CC(C)C)NC(=O)[C@@H](NC(=O)[C@@H](N)[C@@H](C)O)[C@@H](C)CC)C(=O)N[C@@H](Cc1ccccc1)C(=O)N[C@@H](CCCCN)C(=O)O [TILQSLKNIFK]
